Measurements taken from patent US8735425B2, “Tetrahydroisoquinoline derivative” (Daiichi Sankyo Company, Limited, priority 2008, dated 2014).

Target: T1, DGAT1 enzyme (Homo sapiens, UniProt O75907)
T1 construct: made in house
T1 sequence (O75907 1-488): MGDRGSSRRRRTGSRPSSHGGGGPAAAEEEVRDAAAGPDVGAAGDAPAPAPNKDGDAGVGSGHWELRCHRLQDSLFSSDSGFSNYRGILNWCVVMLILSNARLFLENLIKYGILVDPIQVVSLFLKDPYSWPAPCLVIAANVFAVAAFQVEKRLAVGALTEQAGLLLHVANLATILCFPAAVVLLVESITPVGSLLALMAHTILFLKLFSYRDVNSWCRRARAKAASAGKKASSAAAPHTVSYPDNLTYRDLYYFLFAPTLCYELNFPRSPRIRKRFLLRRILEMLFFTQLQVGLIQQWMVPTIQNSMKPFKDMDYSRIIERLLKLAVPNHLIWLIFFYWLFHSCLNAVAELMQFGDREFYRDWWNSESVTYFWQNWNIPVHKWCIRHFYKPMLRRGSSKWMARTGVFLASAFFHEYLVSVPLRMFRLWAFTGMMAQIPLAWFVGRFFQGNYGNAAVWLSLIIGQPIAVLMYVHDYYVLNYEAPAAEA
Test: DGAT1 inhibitory activity test
Type: biochemical
Details: test compound concentration of 0.05 μg/ml; read-out: Inhibitory Rate
Protocol: DGAT1 enzyme was prepared and stored according to the method described in US2007/0249620.
(2) DGAT1 Inhibitory Activity Test
A reaction solution having the following composition was incubated at room temperature (23° C.) for 30 minutes: 175 mM Tris-HCl (pH 8.0), 8 mM MgCl2, 1 mg/ml BSA, 0.3 mM 1,2-dioleoyl-sn-glycerol (10-fold concentration of EtOH solution, 10% added), 10 μM [^14C]-oleoyl-CoA (approximately 50 mCi/mmol), 0.5% Triton X-100, the DGAT1 enzyme (10 μg) obtained in Test Example 1(1), and a test compound or vehicle (DMSO/MeOH, 7:3 solution, 5% added), […] in total. A reaction stop solution ([…] consisting of isopropanol/1-heptane/water (80:20:2, v/v/v) was added to the reaction solution and stirred. Subsequently, water (30 μl) and 1-heptane (100 μl) were added thereto and stirred. The 1-heptane layer (50 μl) was spotted onto a TLC plate and developed with a developing solvent consisting of 1-hexane/diethyl ether/acetic acid (85:15:1, v/v/v). The radioactivity of the triglyceride fraction was quantified using BAS2000 Bio Image Analyzer (FUJIFILM) and compared with the control. The inhibitory activity of the test compound was calculated according to the formula shown below. In this context, the radioactivity at no reaction (0 minute incubation) was used as background. Inhibitory Rate=100−[(Radioactivity of sample supplemented with test compound)−(Background)]/[(Radioactivity of control)−(Background)]×100

Inhibition at 0.05 µg/mL, ≥ 50%:
O=C(O)C[C@@H]1CC[C@H](OC(=O)N2CCc3cc(NC(=O)Nc4ccccc4F)ccc3C2)C1 (relative stereo) [Example 6, cis-6-[3-(2-fluoro-phenyl)-ureido]-3,4-dihydro-1H-isoquinoline-2-carboxylic acid 3-carboxymethyl-cyclopentyl ester]
C[C@H]1C[C@@H](CC(=O)O)CC[C@H]1OC(=O)N1CCc2cc(NC(=O)Nc3ccccc3F)ccc2C1 (relative stereo) [Example 14, 6-[3-(2-fluoro-phenyl)-ureido]-3,4-dihydro-1H-isoquinoline-2-carboxylic acid c-4-carboxymethyl-c-2-methyl-r-1-cyclohexyl ester]
O=C(O)C[C@H]1CC[C@@H](OC(=O)N2CCc3cc(NC(=O)Nc4ccccc4F)ccc3C2)CC1 [Example 3, cis-6-[3-(2-fluoro-phenyl)-ureido]-3,4-dihydro-1H-isoquinoline-2-carboxylic acid 4-carboxymethyl-cyclohexyl ester]
O=C(Nc1ccc2c(c1)CCN(C(=O)O[C@H]1CC[C@@H](C(=O)O)CC1)C2)Nc1ccccc1F [Example 9, cis-6-[3-(2-fluoro-phenyl)-ureido]-3,4-dihydro-1H-isoquinoline-2-carboxylic acid 4-carboxy-cyclohexyl ester]
NC(=O)C[C@H]1CC[C@H](OC(=O)N2CCc3cc(NC(=O)Nc4ccccc4F)ccc3C2)CC1 [Example 18, trans-6-[3-(2-fluoro-phenyl)-ureido]-3,4-dihydro-1H-isoquinoline-2-carboxylic acid 4-carbamoylmethyl-cyclohexyl ester]
CC(C)(NC(=O)C[C@H]1CC[C@H](OC(=O)N2CCc3cc(NC(=O)Nc4ccccc4F)ccc3C2)CC1)C(=O)O [Example 19, trans-6-[3-(2-fluoro-phenyl)-ureido]-3,4-dihydro-1H-isoquinoline-2-carboxylic acid 4-[(1-carboxy-1-methyl-1-ethylcarbamoyl)-methyl]-cyclohexyl ester]
CN(C)C(=O)C[C@H]1CC[C@H](OC(=O)N2CCc3cc(NC(=O)Nc4ccccc4F)ccc3C2)CC1 [Example 33, trans-6-[3-(2-fluoro-phenyl)-ureido]-3,4-dihydro-1H-isoquinoline-2-carboxylic acid 4-dimethylcarbamoylmethyl-cyclohexyl ester]
CNC(=O)C[C@H]1CC[C@H](OC(=O)N2CCc3cc(NC(=O)Nc4ccccc4F)ccc3C2)CC1 [Example 34, trans-6-[3-(2-fluoro-phenyl)-ureido]-3,4-dihydro-1H-isoquinoline-2-carboxylic acid 4-methylcarbamoylmethyl-cyclohexyl ester]
O=C(O)CNC(=O)C[C@H]1CC[C@H](OC(=O)N2CCc3cc(NC(=O)Nc4ccccc4F)ccc3C2)CC1 [Example 35, trans-6-[3-(2-fluoro-phenyl)-ureido]-3,4-dihydro-1H-isoquinoline-2-carboxylic acid 4-[(carboxymethyl-carbamoyl)-methyl]-cyclohexyl ester]
CC(NC(=O)C[C@H]1CC[C@H](OC(=O)N2CCc3cc(NC(=O)Nc4ccccc4F)ccc3C2)CC1)C(=O)O (stereo partly drawn) [Example 36, trans-6-[3-(2-fluoro-phenyl)-ureido]-3,4-dihydro-1H-isoquinoline-2-carboxylic acid 4-[(1-carboxy-ethylcarbamoyl)-methyl]-cyclohexyl ester]
O=C(C[C@H]1CC[C@H](OC(=O)N2CCc3cc(NC(=O)Nc4ccccc4F)ccc3C2)CC1)NC1(C(=O)O)CC1 [Example 37, trans-6-[3-(2-fluoro-phenyl)-ureido]-3,4-dihydro-1H-isoquinoline-2-carboxylic acid 4-[(1-carboxy-cyclopropylcarbamoyl)-methyl]-cyclohexyl ester]
O=C(Nc1ccc2c(c1)CCN(C(=O)O[C@H]1CC[C@H](CC(=O)N3CCCC3C(=O)O)CC1)C2)Nc1ccccc1F (stereo partly drawn) [Example 38, trans-6-[3-(2-fluoro-phenyl)-ureido]-3,4-dihydro-1H-isoquinoline-2-carboxylic acid 4-[2-(2-carboxy-pyrrolidin-1-yl)-2-oxo-ethyl]-cyclohexyl ester]
O=C(Nc1ccc2c(c1)CCN(C(=O)O[C@H]1CC[C@H](Cc3nc(C(=O)O)co3)CC1)C2)Nc1ccccc1F [Example 39, trans-6-[3-(2-fluoro-phenyl)-ureido]-3,4-dihydro-1H-isoquinoline-2-carboxylic acid 4-(4-carboxy-oxazol-2-ylmethyl)-cyclohexyl ester]
O=C(C[C@H]1CC[C@H](OC(=O)N2CCc3cc(NC(=O)Nc4ccccc4F)ccc3C2)CC1)Nc1nnn[nH]1 [Example 40, trans-6-[3-(2-fluoro-phenyl)-ureido]-3,4-dihydro-1H-isoquinoline-2-carboxylic acid 4-[(1H-tetrazol-5-ylcarbamoyl)-methyl]-cyclohexyl ester]
O=C(Nc1ccc2c(c1)CCN(C(=O)O[C@H]1CC[C@H](Cc3cc(O)n[nH]3)CC1)C2)Nc1ccccc1F [Example 42, trans-6-[3-(2-fluoro-phenyl)-ureido]-3,4-dihydro-1H-isoquinoline-2-carboxylic acid 4-(5-hydroxy-2H-pyrazol-3-ylmethyl)-cyclohexyl ester]
C[S+]([O-])c1cccc(NC(=O)Nc2ccc3c(c2)CCN(C(=O)O[C@H]2CC[C@H](CC(=O)O)CC2)C3)c1 (stereo partly drawn) [Example 65, trans-6-[3-(3-methanesulfinyl-phenyl)-ureido]-3,4-dihydro-1H-isoquinoline-2-carboxylic acid 4-carboxymethyl-cyclohexyl ester]
COc1ccc(NC(=O)Nc2ccc3c(c2)CCN(C(=O)O[C@H]2CC[C@H](CC(=O)O)CC2)C3)cc1 [Example 79, trans-6-[3-(4-methoxy-phenyl)-ureido]-3,4-dihydro-1H-isoquinoline-2-carboxylic acid 4-carboxymethyl-cyclohexyl ester]
O=C(O)C[C@H]1CC[C@H](OC(=O)N2CCc3cc(NC(=O)Nc4cncc(Cl)c4)ccc3C2)CC1 [Example 93, trans-6-[3-(5-chloro-pyridin-3-yl)-ureido]-3,4-dihydro-1H-isoquinoline-2-carboxylic acid 4-carboxymethyl-cyclohexyl ester]
O=C(O)C[C@H]1CC[C@H](OC(=O)N2CCc3cc(NC(=O)Nc4cnccn4)ccc3C2)CC1 [Example 94, trans-6-(3-pyrazin-2-yl-ureido)-3,4-dihydro-1H-isoquinoline-2-carboxylic acid 4-carboxymethyl-cyclohexyl ester]
O=C(O)C[C@H]1CC[C@H](OC(=O)N2CCc3cc(Nc4nc5ccccc5s4)ccc3C2)CC1 [Example 98, trans-6-(benzothiazol-2-ylamino)-3,4-dihydro-1H-isoquinoline-2-carboxylic acid 4-carboxymethyl-cyclohexyl ester]
COc1cccc(NC(=O)Nc2ccc3c(c2)CCN(C(=O)C(C)C2CCC(CC(=O)O)CC2)C3)c1 (stereo not drawn) [Example 106, [4-(2-{6-[3-(3-methoxy-phenyl)-ureido]-3,4-dihydro-1H-isoquinolin-2-yl}-1-methyl-2-oxy-ethyl)-cyclohexyl]-acetic acid]
